Measured values taken from patent US10676486B2, “Macrocyclic RIP2 kinase inhibitors” (ONCODESIGN S.A., priority 2014, dated 2020).

Key:
RIP2 recombinant protein = RIP2 recombinant protein (Homo sapiens, UniProt O43353); assay: Radiometric protein kinase assay (33PanQinase Activity Assay) for RIP2, peptide-based; assay type: biochemical; settings: for remaining activity at 0.1 µM / remaining activity at 1 µM: 1 h; for remaining activity at 0.1 µM: compound at 0.1 μM; for remaining activity at 1 µM: compound at 1 μM; for IC50: ATP 3.0 μM, RIP2 15.7 nM, 30° C., 60 minutes
Sequence of RIP2 recombinant protein (O43353 whole entry): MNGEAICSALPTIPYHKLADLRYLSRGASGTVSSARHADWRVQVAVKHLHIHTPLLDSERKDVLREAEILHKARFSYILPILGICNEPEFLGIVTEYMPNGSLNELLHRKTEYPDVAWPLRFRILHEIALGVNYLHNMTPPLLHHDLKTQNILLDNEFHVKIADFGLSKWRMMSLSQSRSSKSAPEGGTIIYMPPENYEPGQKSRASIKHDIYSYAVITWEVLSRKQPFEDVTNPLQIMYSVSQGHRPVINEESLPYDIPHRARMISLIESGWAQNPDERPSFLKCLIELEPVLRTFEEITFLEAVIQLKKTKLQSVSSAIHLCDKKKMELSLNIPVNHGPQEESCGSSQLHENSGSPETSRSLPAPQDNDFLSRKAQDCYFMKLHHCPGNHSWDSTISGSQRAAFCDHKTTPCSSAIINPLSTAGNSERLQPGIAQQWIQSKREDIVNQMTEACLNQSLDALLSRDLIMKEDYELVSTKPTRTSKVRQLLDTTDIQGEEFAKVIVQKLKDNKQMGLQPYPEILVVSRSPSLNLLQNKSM
Experimental: The inhibition of RIP2 kinase was assessed using RIP2 recombinant protein in an in vitro peptide-based kinase assay.
A radiometric protein kinase assay (^33PanQinase® Activity Assay) is used for measuring the kinase activity. All assays are performed in 96-well FlashPlates™ from Perkin Elmer in a 50 μl reaction volume. The reaction cocktail is pipetted in 4 steps in the following order: • 10 μl of non-radioactive ATP solution (in H2O) • 25 μl of assay buffer/[γ-^33P]-ATP mixture • 5 μl of test sample in 10% DMSO • 10 μl of enzyme/substrate mixture
The assay for RIP2 contains 70 mM HEPES-NaOH pH 7.5, 3 mM MgCl2, 3 mM MnCl2, 3 μM Na-orthovanadate, 1.2 mM DTT, 50 μg/mI PEG20000, ATP (3.0 μM), [γ-^33P]-ATP (approx. 5×10^05 cpm per well), protein kinase RIP2 (15.7 nM) and substrate (RBER-Chktide), 2.0 μg/50 μl).
The reaction cocktails were incubated at 30° C. for 60 minutes. The reaction was stopped with 50 μl of 2% (v/v) H3PO4, plates were aspirated and washed two times with 200 μl 0.9% (w/v) NaCl. Incorporation of ^33Pi (counting of “cpm”) was determined with a microplate scintillation counter.
The compounds are dissolved to 10 mM in DMSO. Where needed, solutions are sonicated in a bath sonicator.
Table 4 provides the pIC50 values and % Remaining activity values at two concentrations (1 μM and 0.1 μM) of the compounds according to the invention, obtained using the above mentioned kinase assay.

[1] = several clinical cases; The Oncologist (2013) 18: e3-e5; cited from earlier work
RIP2 = molecular target: T1, RIP2 (Mus musculus, UniProt P58801); settings: mouse models of chronic inflammatory bowel diseases; J Biol Chem. (2005) 15, 14981-14988; cited from earlier work
T1 construct: host or cells: mouse (in vivo colitis models)
T1 sequence (P58801 whole entry): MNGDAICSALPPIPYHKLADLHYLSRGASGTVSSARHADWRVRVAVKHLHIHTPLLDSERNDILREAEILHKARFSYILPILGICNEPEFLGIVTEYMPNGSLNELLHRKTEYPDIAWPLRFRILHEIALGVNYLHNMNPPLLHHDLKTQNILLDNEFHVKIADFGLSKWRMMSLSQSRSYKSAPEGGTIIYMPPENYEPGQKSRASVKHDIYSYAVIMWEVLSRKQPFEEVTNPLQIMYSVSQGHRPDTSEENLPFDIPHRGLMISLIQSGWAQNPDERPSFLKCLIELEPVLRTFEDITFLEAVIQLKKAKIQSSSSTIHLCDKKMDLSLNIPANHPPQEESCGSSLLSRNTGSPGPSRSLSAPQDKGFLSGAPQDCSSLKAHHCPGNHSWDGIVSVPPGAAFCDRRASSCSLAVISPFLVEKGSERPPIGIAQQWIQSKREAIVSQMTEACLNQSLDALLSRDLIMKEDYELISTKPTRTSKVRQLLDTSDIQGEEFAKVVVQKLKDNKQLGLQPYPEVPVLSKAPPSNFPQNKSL

SMILES | remaining activity at 0.1 µM (RIP2 recombinant protein) | remaining activity at 1 µM (RIP2 recombinant protein) | IC50 (RIP2 recombinant protein) | melting point | clinical effect on psoriasis, arthritic symptoms or insulin-resistant type 2 diabetes [1] | effect on induced colitis (RIP2)
COc1cc2ncnc(Nc3ccc(F)c(Cl)c3)c2cc1OCCCN1CCOCC1 [Gefitinib] | – | – | – | – | efficient to clear psoriasis or reduce arthritic symptoms or insulin-resistant type 2 diabetes | –
C[S+]([O-])c1ccc(-c2nc(-c3ccncc3)c(-c3ccc(F)cc3)[nH]2)cc1 (stereo not drawn) [SB203580] | – | – | – | – | – | efficacious to reduce induced-colitis
C#Cc1cccc(Nc2ncnc3cc(OCCOC)c(OCCOC)cc23)c1 [Erlotinib] | – | – | – | – | efficient to clear psoriasis or reduce arthritic symptoms or insulin-resistant type 2 diabetes | –
c1cc2cc(c1)-c1cnn3ccc(nc13)NC[C@@H]1CCCN1CCO2 [Compound O8] | < 50% | < 50% | < 100 nM | > 300 °C | – | –
Fc1cc2cc(c1)-c1cnn3ccc(nc13)NC[C@@H]1CCCN1CCCO2 [Compound O11] | < 50% | < 50% | < 100 nM | – | – | –
Fc1cc2cc(c1)-c1cnn3ccc(nc13)NC[C@@H]1CCCN1CCO2 [Compound O5] | < 50% | < 50% | < 100 nM | 241 °C | – | –
Fc1cc2cc(c1)-c1cnn3ccc(nc13)NCC1CCCCN1CCCO2 (stereo not drawn) [Compound O14] | – | – | < 100 nM | – | – | –
Fc1cc2cc(c1)-c1cnn3ccc(nc13)NCC[C@H]1CCCN1CCO2 [Compound O7] | < 50% | < 50% | < 100 nM | > 300 °C | – | –
Fc1cc2cc(c1)-c1cnn3ccc(nc13)NCC1CCCCN1CCO2 (stereo not drawn) [Compound O13] | < 50% | < 50% | < 100 nM | – | – | –
Clc1cc2cc(c1)-c1cnn3ccc(nc13)NC[C@H]1CCCN1CCCO2 [Compound O3] | < 50% | < 50% | < 100 nM | 186.4 °C | – | –

Now from value to compound, other results behind:

remaining activity at 0.1 µM (RIP2 recombinant protein) | remaining activity at 1 µM (RIP2 recombinant protein) | IC50 (RIP2 recombinant protein) | melting point | SMILES | clinical effect on psoriasis, arthritic symptoms or insulin-resistant type 2 diabetes [1] | effect on induced colitis (RIP2)
< 50% | < 50% | < 100 nM | 198.5 °C | CN1C[C@@H]2CCCN2CCOc2cccc(c2)-c2cnn3ccc1nc23 [Compound O10] | – | –
< 50% | < 50% | < 100 nM | > 300 °C | Clc1cc2cc(c1)-c1cnn3ccc(nc13)NC[C@@H]1CCCN1CCO2 [Compound O4] | – | –
< 50% | < 50% | < 100 nM | > 300 °C | Clc1cc2cc(c1)-c1cnn3ccc(nc13)NC[C@@H]1CCCN1CCCO2 [Compound O9] | – | –
< 50% | < 50% | < 100 nM | > 300 °C | Fc1cc2cc(c1)-c1cnn3ccc(nc13)NC[C@H]1CCCN1CCCO2 [Compound O6] | – | –
< 50% | < 50% | < 100 nM | > 300 °C | c1cc2cc(c1)-c1cnn3ccc(nc13)NCC1CCCN1CCO2 (stereo not drawn) [Compound O1] | – | –
< 50% | < 50% | < 100 nM | – | Fc1c(Cl)cc2cc1OCCN1CCC[C@H]1CNc1ccn3ncc-2c3n1 [Compound O12] | – | –
– | – | < 100 nM | 91.2 °C | CN1CC2CCCN2CCOc2cccc(c2)-c2cnn3ccc1nc23 (stereo not drawn) [Compound O2] | – | –
